Experimental findings from patent US20200108043A1, “COMPOUNDS AND COMPOSITIONS FOR EXTENDING LIFESPAN OF A SUBJECT” (YALE UNIVERSITY, priority 2017, published 2020) are described below.

Entries after “also recorded” stand apart in the source; their conditions may differ. Structures can show the parent of a compound that is named as a salt.

In data set [1] the test system is Saccharomyces cerevisiae. As to the kind of experiment: High-Life (High throughput replicative Lifespan measurement) flow cytometry assay in MEP yeast. It is filed as cell-based. To be noted: for average High-Life readings (progenitor fraction viable vs CF405M intensity) relative to controls: 10 μM, 24 hours in culture, 3-4 replicate wells, repeat of screen hits; for lifespan extending properties (High-Life): testing conditions identical to Example 3 (10 μM, 24 hours). The procedure:
Cells were labeled with NHS-fluorescein as described above, then diluted to 20 cells/μL in media. 80 μL/well was aliquoted to 384-well plates, which were covered with a breathable membrane and placed on a shaker platform in a humidified incubator. After 3 hours, the plates were removed from the incubator and each well was treated with 20 μL pre-warmed, 30° C. 5 μM β-estradiol in media. In the case of ibuprofen or compound-treated wells, the compound was diluted in this volume at a 5× concentration to achieve a final concentration of 10 μM, or 100 μM for ibuprofen. The plates were then returned to the incubator. At indicated times, one plate was removed from the incubator and placed on an autosampler cooled to 8° C. attached to a Stratedigm flow cytometer. The cytometer was set to automatically add and mix 20 μL of aqueous solution containing 60 μg/mL CF405M-WGA (Biotium 29028) and propidium iodide (Sigma P4864) prior to acquiring 80 μL of sample for each well.
In order to test the lifespan of model organisms on both a large-scale and with quick turn-around, a massively multiplexed method was developed to measure replicative lifespan in the short-lived model organisms Saccharomyces cerevisiae. The protocol uses green-fluorescent labeling to identify progenitor cells, red-fluorescent labeling to differentiate non-viable cells, and blue-fluorescent labeling of bud scars to determine replicative age (FIG. 1). Each parameter is measured using a flow cytometer.
To achieve high throughput, the measurement system was automated, and the assay was performed in 384-well plates. The assay was performed using an autosampler-equipped flow cytometer, in a volume of 100 μL. Growth of even a single cell and its progeny in such a small volume will result in nutrient starvation before the natural replicative lifespan is exhausted; therefore to circumvent this issue, High-Life experiments were performed in the background of the Mother Enrichment Program (MEP) (Lindstrom and Gottschling, Genetics. 2009 October; 183(2):413-22). MEP strains express a CRE recombinase fused to an estrogen-binding domain for only a short time after birth. In the presence of β-estradiol, the recombinase translocates to the nucleus where it can excise two essential genes that have been modified to contain the exogenous LoxP sequence. Addition of β-estradiol to the media thus renders newborn daughters inviable without affecting existing mother cells, preventing exponential growth of the cell population and nutrient depletion (FIG. 2A).
The High-Life method was then tested to determine if it was suitable to screening for compounds that extend replicative lifespan. […] The effect of these compounds on High-Life readings was assayed after 24 hours in culture at 10 μM concentration. As a positive control, ibuprofen was used.
In general terms: In flow cytometry, cells or beads pass a laser one at a time.

Data set [2] has as its system S. cerevisiae. In kind it is cell-based. Particulars: for lifespan of yeast cells (Replicator validation): 10 μM, supplied to young yeast cells throughout lifespan, vs untreated control. On the procedure: To obtain the single-cell level data for the age and generation-durations of replicatively aging mother cells, data reported in Liu, P., et al., Cell Rep. 634-644 (2015) was re-analyzed. The data was collected in the same media condition (CSM 2% glucose) as reported elsewhere herein. Cells were grown for ˜24 hours in CSM 2% glucose prior to loading to the microfluidic device. Once cells were loaded, media was swapped to provide CSM 2% glucose control media (untreated), media containing DMSO as a vehicle control (American Bio AB00435), media containing 10 μM terreic acid (Sigma SML0480), media containing 10 μM mycophenolic acid (Sigma M5255), or media containing another compound at the indicated concentration. An automated microscope was used to track […], and replicative lifespan was later determined by counting the number of daughters produced before death. In the case of compound validation, only newborn cells were included in the lifespan experiment. To compare the replicative lifespan of labeled and unlabeled cells, only cells that were present within the traps at the start of the experiment were included. For these experiments, cells were loaded to the microfluidic device at an increased rate of 100 μL/min to increase the number of trapped mother cells. Green fluorescent images were also taken at the start of the experiment to confirm that the cells were visibly labeled.
Differences in lifespan characteristics were assessed through Log-Rank test using MATLAB with a cut-off value of P=0.05. The script for Log-Rank test was downloaded from MATLAB. Differences in proteasome activity were assessed using the unpaired, two-tailed, parametric t-test function of the GraphPad Prism software.
The Longevity Placement Test (LPT) was designed as a mutually exclusive, collectively exhaustive test to determine the relationship of a longevity intervention to a known genetic regulator of lifespan. For a given intervention that extends lifespan, any of three possible relationships may exist relative to a known genetic regulator of lifespan. (1) The intervention may act to extend lifespan independently from the known regulator. (2) The […] may act downstream from the known regulator, converging on a single component of the known regulator's lifespan pathway. (3) The intervention may act upstream from or upon the known regulator, ultimately modulating lifespan through the genetic regulator.
In Step 1 of the LPT, the longevity intervention is applied to a strain in which a genetic regulator of lifespan is deleted. In the event that lifespan extension from the longevity intervention is observed in this background, only possibilities (1) and (2) above remain valid (FIG. 7B). If no lifespan extension is observed, then possibilities (2) and (3) remain valid. Possibility (2) cannot be ruled out in this step, since non-saturating action by the genetic regulator could leave room for lifespan extension by the longevity intervention, while saturating action would preclude it.
In Step 2 of the LPT, an epistatic agent, which prevents lifespan extension from the longevity agent, is applied to a strain in which some upstream member of the genetic regulator's lifespan pathway has been modified to extend lifespan. This step differentiates possibility (2) from the remaining possibility after Step 1. In the event that lifespan extension from the genetic regulator's pathway is suppressed by the epistatic agent, this determines that possibility (2) is correct. In the event that no epistasis is observed, the remaining possibility, (1) or (3), is correct (FIG. 7C).

As for `Cn1c([N+](=O)[O-])cnc1COC(N)=O` [ronidazole], in data set [1], the “average High-Life readings (progenitor fraction viable vs CF405M intensity) relative to controls” value is recorded as “at least slightly above controls”.

On to `COc1cc(Cc2cnc(N)nc2N)cc(OC)c1OC` [Trimethoprim], for which, in data set [1], the “lifespan extending properties (High-Life)” value is on record as “at least some lifespan extending properties”.

Turning to `Cc1oncc1C(=O)Nc1ccc(C(F)(F)F)cc1` [Leflunomide], the “lifespan extending properties (High-Life)” value in data set [1] is on record as “at least some lifespan extending properties”.

For `O=[N+]([O-])c1ccc(O)c2ncccc12` [nitroxoline, 8-hydroxy-5-nitroquinoline], in data set [1], the “average High-Life readings (progenitor fraction viable vs CF405M intensity) relative to controls” value is listed as “at least slightly above controls”. Besides, the “toxicity in Replicator RLS experiment” value in data set [2] (10 μM compound) is “toxic and caused most cells to arrest immediately”.

In the case of `Nc1nc(=O)c2c([nH]1)NCC(CNc1ccc(C(=O)N[C@@H](CCC(=O)O)C(=O)O)cc1)N2C=O` (mixture of isomers) [folinic acid], the “suppression of the longevity effect of proguanil” value in data set [2] (10 μg/mL folinic acid with 10 μM proguanil, Replicator device) was “able to suppress the longevity effect of proguanil”.

Turning to `N=C(N)N/N=C/c1c(Cl)cccc1Cl` [guanabenz acetate], in data set [1], the “average High-Life readings (progenitor fraction viable vs CF405M intensity) relative to controls” value was “at least slightly above controls”. Also, the “lifespan of yeast cells (Replicator validation)” value in data set [2] is listed as “extend the lifespan”.

Consider `COc1c(C)c2c(c(O)c1CC1CC1(C)CCC(=O)O)C(=O)OC2` (stereo not drawn) [3-(2-((4-Hydroxy-6-methoxy-7-methyl-3-oxo-1,3-dihydroisobenzofuran-5-yl)methyl)-1-methylcyclopropyl)propanoic acid], for which the “lifespan extending properties (High-Life)” value is given as “measurable lifespan extension in initial tests” in data set [1] and “at least some lifespan extending properties” in data set [1] (listed as 3-(2-((4-Hydroxy-6-methoxy-7-methyl-2-oxo-1,3-dihydroisobenzofuran-5-yl)methyl)-).

Consider `Cc1ccc(Cl)c(Nc2ccccc2C(=O)O)c1Cl` [meclofenamate sodium], for which the “average High-Life readings (progenitor fraction viable vs CF405M intensity) relative to controls” value in data set [1] was “at least slightly above controls”.

Consider `N.N.[Cl][Pt][Cl]` [cisplatin], for which, in data set [1], the “average High-Life readings (progenitor fraction viable vs CF405M intensity) relative to controls” value is reported as “at least slightly above controls”.

In the case of `CN(Cc1cnc2nc(N)nc(N)c2n1)c1ccc(C(=O)N[C@@H](CCC(=O)O)C(=O)O)cc1` [Methotrexate], in data set [1], the “lifespan extending properties (High-Life)” value is given as “at least some lifespan extending properties”.

For the compound `CC(=O)OCC(=O)NCCCOc1cccc(CN2CCCCC2)c1` [roxatidine acetate hydrochloride], the “average High-Life readings (progenitor fraction viable vs CF405M intensity) relative to controls” value in data set [1] was “at least slightly above controls”.

As for `N=C(N)c1ccc(OCCCCCOc2ccc(C(=N)N)cc2)cc1` [Pentamidine], the “lifespan extending properties (High-Life)” value in data set [1] is recorded as “at least some lifespan extending properties”.

Turning to `O=C(O)c1cc(=O)c2c(OCC(O)COc3cccc4oc(C(=O)O)cc(=O)c34)cccc2o1` [cromolyn sodium], the “average High-Life readings (progenitor fraction viable vs CF405M intensity) relative to controls” value in data set [1] is given as “at least slightly above controls”.

With `CN1CCc2cccc3c2[C@H]1Cc1ccc(O)c(O)c1-3` [e hydrochloride], the “average High-Life readings (progenitor fraction viable vs CF405M intensity) relative to controls” value in data set [1] is recorded as “at least slightly above controls”.

Take `NC(=O)c1ncn([C@@H]2O[C@H](CO)[C@@H](O)[C@H]2O)c1O` [Mizoribine]: in data set [1], the “lifespan extending properties (High-Life)” value is reported as “at least some lifespan extending properties”.

With `CN(C)CCCN1c2ccccc2Sc2ccc(Cl)cc21` [Chlorpromazine], the “lifespan extending properties (High-Life)” value in data set [1] is “at least some lifespan extending properties”.

On to `CC(C)Cc1ccc(C(C)C(=O)O)cc1` (stereo not drawn) [ibuprofen], for which the “replicative lifespan (High-Life)” value in data set [1] (100 μM ibuprofen vs untreated, multiple time points 0-48 h) was “increase in replicative lifespan was observed”.

Consider `COc1c(C)c2c(c(O)c1C/C=C(\C)CCC(=O)NCc1ccncc1)C(=O)OC2` [(E)-6-(4-hydroxy-6-methoxy-7-methyl-3-oxo-1,3-dihydroisobenzofuran-5-yl)-4-methyl-N-(pyridin-4-ylmethyl)hex-4-enamide], for which, in data set [1], the “lifespan extending properties (High-Life)” value was “at least some lifespan extending properties; also recorded: measurable lifespan extension in initial tests”.

For the compound `Cn1cnc([N+](=O)[O-])c1Sc1ncnc2nc[nH]c12` [Azathioprine], the “lifespan extending properties (High-Life)” value in data set [1] is “at least some lifespan extending properties”.

For the compound `CCN(CC)CCCC(C)Nc1c2ccc(Cl)cc2nc2ccc(OC)cc12` (stereo not drawn) [Quinacrine], the “lifespan extending properties (High-Life)” value in data set [1] is listed as “at least some lifespan extending properties”.

`[H]/N=C(\N/C(=N/[H])Nc1ccc(Cl)cc1)NC(C)C` [proguanil hydrochloride]: the “average High-Life readings (progenitor fraction viable vs CF405M intensity) relative to controls” value in data set [1] is recorded as “at least slightly above controls”. Besides, the “lifespan of yeast cells (Replicator validation)” value in data set [2] was “extend the lifespan”.

As to `Nc1nc2[nH]cc(CCc3ccc(C(=O)N[C@@H](CCC(=O)O)C(=O)O)cc3)c2c(=O)[nH]1` [Pemetrexed], the “lifespan extending properties (High-Life)” value in data set [1] is “at least some lifespan extending properties”.

Turning to `Cc1cc(NS(=O)(=O)c2ccc(N)cc2)no1` [Sulfamethoxazole], the “lifespan extending properties (High-Life)” value in data set [1] is listed as “at least some lifespan extending properties”.
